Data: patent US20250339518A1 (priority 2023, published 2025)

Experiments:
Type in all cases: cell-based, murine
MB49-STING KO cell line = test system: MB49-STING KO cell line
MB49 cells [1] = test system: MB49 cells
[2] = test system: MB49-Double KO (MB49 2KO) cell line
MB49 cells [3] = test system: MB49 cells; remark: listed apart in the source

| SMILES | VAX014-induced IFN-β production, pIRF3/IRF3 ratios and PD-L1/MHC-I surface expression after inhibitor preincubation (MB49-STING KO cell line) | PD-L1 and MHC-I surface expression (MB49-STING KO cell line) | PD-L1 surface expression (MB49 cells [1]) | IFN-β production [2] | Surface PD-L1 expression [2] | Type I IFN (IFN-β) production in culture supernatants (MB49 cells [3]) |
| --- | --- | --- | --- | --- | --- | --- |
| CC(C)c1ccc2oc3nc(N)c(C(=O)O)cc3c(=O)c2c1 [Amlexanox] | nearly to baseline conditions of the untreated control | – | – | – | – | – |
| Cc1ccc2c(=O)c3cccc(CC(=O)O)c3oc2c1C [DMXAA] | – | loss of PD-L1 and MHC-I | able to induce PD-L1 expression | Complete loss | Complete loss | stimulated IFN production |
